# In patent publication US20210087217A1, “NUCLEOTIDE HEMI-SULFATE SALT FOR THE TREATMENT OF HEPATITIS C VIRUS” (Atea Pharmaceuticals, Inc., priority 2017, published 2021):
# Tests used:
# [1] = sofosbuvir 400 mg QD; cited from earlier work
# [2] = test system: HCV RNA (GT1a HCV); details: after 1 day of 400 mg monotherapy, GT1a HCV-infected subjects; cited from earlier work
# [3] = Head-to-head comparison of plasma levels in dogs dosed with Compound 1 and Compound 2; type: in vivo, dog; details: dosed Compound 1 25 mg/kg or Compound 2 30 mg/kg, normalized to a dose of 25 mg/kg
# Procedure: A head-to-head comparison of dogs dosed with Compound 1 and Compound 2 was conducted.
# [4] = Plasma profiles of Compound 2 metabolites in rats; details: male, Sprague-Dawley, rat, plasma, po, 500 mg/kg
# Procedure: The results for a single 500 mg/kg dose in rats is shown in FIG. 17 and the results for a single 30, 100, or 300 mg/kg dose in monkeys is shown in FIG. 18.
# [5] = Plasma profiles of Compound 2 metabolites in monkeys; type: in vivo, cynomolgus monkeys; details: cynomolgus monkey, plasma, po
# [6] = test system: replicons containing the NS5B sequences from HCV patient plasma samples (GT1a, 1b, 2a, 2b, 3a-1, 3a-2, 4a and 4d); experiment: Replicons containing NS5B sequences from HCV patient plasma samples (clinical isolates); type: cell-based; details: clinical isolates of GT1, GT2, GT3, and GT4, FIG. 24
# [7] = Single ascending dose study of Compound 2 in healthy volunteers (Part A): safety, tolerability, pharmacokinetic; type: in vivo, human; details: both sexes, human, in vivo
# Procedure: Compound 2 was tested in a single ascending dose (SAD) study to measure its safety, tolerability, and pharmacokinetic in healthy subjects (Part A). Part A was a randomized, double-blind, placebo-controlled SAD study. Healthy subjects in Part A received a single dose of Compound 2 or placebo in the fasting state. Subjects were confined to the clinic from Day −1 to Day 6.
# Dosing in each cohort was staggered such that 2 subjects (1 active:1 placebo) were evaluated for 48 hours after dosing before the remainder of the cohort was dosed. Each cohort received Compound 2 in ascending order. Dosing of sequential cohorts occurred based on review of available safety data (through Day 5) and plasma pharmacokinetic data (through 24 h) of the prior cohort.
# As pharmacokinetic and safety data emerged from prior cohorts, doses evaluated in Cohorts 3a-4a were adjusted by increments no more than 100 mg.
# Healthy volunteers in the Part A portion of the study were male and female subjects between the ages of 18 and 65. Active and placebo recipients were pooled within each Part A cohort to preserve the study blind.
# (§1) Pharmacokinetic of Compound 1 and nucleoside metabolite 1-7 were measured following the single dose of Compound 2. […] Values are reported as mean±SD, except or Tmax where median (range) is reported.
# [8] = Single ascending dose study of Compound 2 in GT1-HCV infected patients (Part B): safety, tolerability, pharmacokinetic; type: in vivo, human; details: for AUC / Cmax / half-life: mean±SD
# Procedure: Subjects in Part B received a single dose of Compound 2 in the fasting state. Patients were confined to the clinic from Day −1 to Day 6.
# Part B was initiated after the safety (through Day 5) and plasma pharmacokinetic (through 24 h) data review from Cohort 3a in Part A. Available safety data (through Day 5) and pharmacokinetic data (through 24 h) was reviewed for the first cohort in Part B (Cohort 1b) before enrolling subsequent Part B cohorts. Subsequent Part B cohorts were only dosed following review of available safety and pharmacokinetic data from the respective doses in Part A as well as available safety (through Day 5) from the prior Part B cohorts.
# Patients infected with HCV were treatment-naïve, non-cirrhotic GT1-infected subjects with a viral load of ≥5 log10 IU/mL.
# as §1
# Plasma exposure of Compound 1 was dose-related while exposure of metabolite 1-7 was dose-proportional.
# [9] = in vitro; details: rat
# [10] = Solubility in biorelevant test medias (water, SGF, FaSSIF, FeSSIF)
# [11] = human, in vivo, 100 mg, GT1-HCV infected patients, Compound 2 100 mg
# [12] = human, in vivo, 300 mg, GT1-HCV infected patients, Compound 2 300 mg (first 300 mg line)
# [13] = human, in vivo, 300 mg, GT1-HCV infected patients, Compound 2 300 mg (second 300 mg line)
# [14] = human, in vivo, 400 mg, GT1-HCV infected patients, Compound 2 400 mg
# [15] = human, in vivo, 600 mg, GT1-HCV infected patients, Compound 2 600 mg
smiles,measurement,setting,value
CC(C)OC(=O)[C@H](C)N[P@](=O)(OC[C@H]1O[C@@H](n2ccc(=O)[nH]c2=O)[C@](C)(F)[C@@H]1O)Oc1ccccc1 [sofosbuvir],"Steady-state trough concentration (C24,ss) of the nucleoside metabolite",[1],approximately 100 ng/mL
same,HCV RNA reduction,[2],2 log10 IU/mL
"CNc1nc(N)nc2c1ncn2[C@@H]1O[C@H](CO[P@@](=O)(N[C@@H](C)C(=O)OC(C)C)Oc2ccccc2)[C@@H](O)[C@@]1(C)F [Compound 1, isopropyl((S)-(((2R,3R,4R,5R)-5-(2-Amino-6-(methylamino)-9H-purin-9-yl)-4-fluoro-3-hydroxy-4-methyltetrahydrofuran-2-yl)methoxy)(phenoxy)phosphoryl)-L-alaninate]",Mean Dose-normalized AUC(0-4hr) for Compound 1,[3],0.2 µM·h
same,AUC(0-t),[4],78.2 ng·h/mL
same,Cmax,[4],60.8 ng/mL
same,Tmax,[4],15 min
same,AUC(0-t),[5]; 30 mg/kg,176 ng·h/mL
same,Cmax,[5]; 30 mg/kg,63.5 ng/mL
same,Tmax,[5]; 30 mg/kg,30 to 120 min
same,AUC(0-t),[5]; 100 mg/kg,1100 ng·h/mL
same,Cmax,[5]; 100 mg/kg,783 ng/mL
same,Tmax,[5]; 100 mg/kg,60 to 120 min
same,AUC(0-t),[5]; 300 mg/kg,1600 ng·h/mL
same,Cmax,[5]; 300 mg/kg,501 ng/mL
same,EC95,[6],less than 25 ng/mL
same,AUC,[7]; 50 mg,36.4 ± 12.3 ng·h/mL
same,Cmax,[7]; 50 mg,46.4 ± 17.6 ng/mL
same,Tmax,[7]; 50 mg,30 min
same,half-life,[7]; 50 mg,19.2 ± 1.2 min
same,AUC,[7]; 100 mg,167 ± 110 ng·h/mL
same,Cmax,[7]; 100 mg,156 ± 96.3 ng/mL
same,Tmax,[7]; 100 mg,30 min
same,half-life,[7]; 100 mg,31.8 ± 14.4 min
same,AUC,[7]; 200 mg,656 ± 255 ng·h/mL
same,Cmax,[7]; 200 mg,818 ± 443 ng/mL
same,Tmax,[7]; 200 mg,30 min
same,half-life,[7]; 200 mg,42.6 ± 9.6 min
same,AUC,[7]; 400 mg,1110 ± 326 ng·h/mL
same,Cmax,[7]; 400 mg,1190 ± 401 ng/mL
same,Tmax,[7]; 400 mg,30 min
same,half-life,[7]; 400 mg,51.6 ± 9 min
same,Tmax,"[8]; GT1-HCV infected patients, Compound 2 300 mg (second 300 mg line), median (range)",0.5 (0.5-1.0) h
same,AUC,[8]; [11],179 ± 54.4 ng·h/mL
same,Cmax,[8]; [11],212 ± 32 ng/mL
same,half-life,[8]; [11],32.4 ± 7.2 min
same,Tmax,"[8]; human, in vivo, 100 mg, read-out: Tmax",30 min
same,AUC,[8]; [12],818 ± 475 ng·h/mL
same,Cmax,[8]; [12],871 ± 590 ng/mL
same,half-life,[8]; [12],38.4 ± 12 min
same,AUC,[8]; [13],1860 ± 1020 ng·h/mL
same,Cmax,[8]; [13],2280 ± 893 ng/mL
same,half-life,[8]; [13],50.4 ± 10.8 min
same,Tmax,"[8]; human, in vivo, 300 mg, read-out: Tmax",30 min
same,AUC,[8]; [14],2410 ± 1010 ng·h/mL
same,Cmax,[8]; [14],2680 ± 2110 ng/mL
same,half-life,[8]; [14],51.6 ± 10.8 min
same,Tmax,"[8]; human, in vivo, 400 mg, read-out: Tmax",60 min
same,AUC,[8]; [15],4130 ± 1130 ng·h/mL
same,Cmax,[8]; [15],3540 ± 1650 ng/mL
same,half-life,[8]; [15],42 ± 7.8 min
same,Tmax,"[8]; human, in vivo, 600 mg, read-out: Tmax",60 min
same,half-life,[9],< 2 min
same,Appearance in solubility test,[10]; FaSSIF,Turbid
same,Solubility descriptive term,[10]; FaSSIF,Slightly Soluble
same,Appearance in solubility test,[10]; FeSSIF,Turbid
same,Solubility descriptive term,[10]; FeSSIF,Slightly Soluble
same,Appearance in solubility test,[10]; SGF,Clear Solution
same,Solubility descriptive term,[10]; SGF,Sparingly
same,Appearance in solubility test,[10]; Water,Clear Solution*
same,Solubility descriptive term,[10]; Water,Slightly Soluble
